Test results from US20180147175A1, “COMPOSITIONS AND METHODS FOR TREATMENT OF MOVEMENT DISORDERS” (ULTRAGENYX PHARMACEUTICAL INC., priority 2015, published 2018).
“Also recorded” adds a separate entry of the source.

Legend:
[1] = system: brain response to cortical activation; assay: Functional 31P-NMR spectroscopy (f-MRS) of brain, Pi/PCr ratio during visual activation; format: in vivo, human
Experimental: Functional ^31P-NMR spectroscopy (f-MRS) was performed at 3 T at the end of each study phase in patients >15 years old (n=5). Data were collected for 4 minutes at rest, 8 minutes during visual activation, 8 minutes after stimulation, and analyzed as described (Adanyeguh et al., 2015, Neurology 84: 490-495 and Mochel et al., 2012, Mov Disord. 27: 907-910). The ratio of Pi/PCr was calculated to determine the brain response to cortical activation.
(§1) Paired t-tests were used for plasma analyses before and after treatment. For clinical parameters, Friedman tests were used to test the global hypothesis that all study phases were equal. If significant, Wilcoxon signed-rank tests were applied for pair-wise phase comparisons with an alpha of 0.05. For the Pi/PCr ratio, repeated measures ANOVA were used to test the global hypothesis that all time points—rest, activation and recovery—were equal. If significant, paired t-tests were applied for pair-wise time comparisons with an alpha of 0.05.

[2] = system: GLUT1-DS patients with non-epileptic paroxysmal manifestations; assay: Open-label pilot study in GLUT1-DS patients: paroxysmal events diary and clinical scales; format: in vivo, human
Description: This example describes an open-label pilot study with four phases of 2 months each (baseline, treatment […], and resumption of treatment) in eight GLUT1-DS patients (7-47 years old) with non-epileptic paroxysmal manifestations.
Participants were enrolled in an interventional clinical protocol. Four children and four adults with GLUT1-DS were enrolled. […] All patients were on a normal diet prior to their enrollment. As noted above, the study was divided into four phases of 2 months each (baseline, treatment, withdrawal, and resumption of treatment). A trained dietitian determined patients' caloric intake and adapted the daily menus so the diets remained isocaloric when triheptanoin was introduced.
A comprehensive diary was kept for each patient to record all motor and non-motor paroxysmal events—including dystonia, tremor, speech disorder, stiffness, paresis, headaches, confusion, and lethargy. At each visit, patients were evaluated with a six minute walk test (6MWT), a nine-hole pegboard test (NHPT), the clinical global impression-improvement scale (CGI-I) and a fatigue severity scale (KFFS or visual analogue scale for patients <15 years old). Blood samples were collected after an overnight fast for standard analyses, and the measurement of plasma C3-carnitine and C5-ketone bodies (Mochel et al., 2005, Molecular Genetics and Metabolism 84: 305-312).
as §1

With CCCCCCC(=O)OCC(COC(=O)CCCCCC)OC(=O)CCCCCC [triheptanoin] the f-MRS bioenergetics profile ([1]; after 2 months on triheptanoin, ANOVA p=0.014, patients >15 years, n=5) was “corrected; also recorded: normalized”, the f-MRS profile ([1]; after treatment withdrawal) was “came back abnormal” and the tolerability ([2]; 1 g/kg/day oral, all patients) was “well tolerated”. The paroxysmal manifestations ([2]; after treatment was resumed) was “dropped significantly”, the “non-epileptic paroxysmal manifestations (FIG. 1)” value ([2]; treated 2 months and on resumption, p<0.05) was “significant reduction” and the “average number of dystonic events” value ([2]; treated 2 months, 1 g/kg/day oral, n=6, baseline 16 (±19, 1-54)) was 2. The “average number of paroxysmal manifestations” value ([2]; treated 2 months, 1 g/kg/day oral, n=6, baseline average 31 (±28, 10-85), p=0.028) was 3 (±3, 0-7), the “performance during the 6MWT and NHPT” value ([2]; treatment phase) was “unchanged” and the CGI-I scale ([2]; treatment phase, all patients) was “much improved”. The fatigue score ([2]; treatment phase, did not reach significance) was “tended to improve”, the fatigue score ([2]; withdrawal phase) was “worsened” and the “average number of dystonic events” value ([2]; withdrawal phase, 2 months) was 13. For the same compound, the “average number of paroxysmal manifestations” value ([2]; withdrawal phase, 2 months, p=0.043) was 24 and the CGI-I scale ([2]; withdrawal phase, five out of six patients) was “much worse”.
